Assay results published in PubChem BioAssay AID214 (DTP/NCI, 2004).
“And” between values parts separate entries of the source, which are not always exact repeats. Equal values may be shown once. Results filed as inconclusive are left out.

System: B6C3F1 mice, colon carcinoma 38 s.c., T/C
Assay: NCI In Vivo Anticancer Drug Screen. Data for tumor model Colon Carcinoma 38 (subcutaneous) in B6C3F1 mice
Conditions: higher = larger tumour
Experimental: The antitumor activity of compounds was measured in mice bearing transplantable tumors. Survival or tumor size were measured and the results are expressed as the measurement made in the treated group (T) divided by the measurement made in the vehicle treated control group (C). The tumor model used in this assay is Colon Carcinoma 38 (subcutaneous) in B6C3F1 mice

[1] = endpoint: median tumor weight (est.), dose: 6.25 mg/kg/injection, schedule: Q07DX002 (ip), vehicle: saline with Tween-80
[2] = endpoint: median tumor weight (est.), dose: 12.5 mg/kg/injection, schedule: Q07DX002 (ip), vehicle: saline with Tween-80
[3] = endpoint: median tumor weight (est.), dose: 25.0 mg/kg/injection, schedule: Q07DX002 (ip), vehicle: saline with Tween-80
[4] = endpoint: median tumor weight (est.), dose: 25.0 mg/kg/injection, schedule: Q07DX002 (ip), vehicle: Klucel (hydroxypropylcellulose) (HPC)
[5] = endpoint: median tumor weight (est.), dose: 50.0 mg/kg/injection, schedule: Q07DX002 (ip), vehicle: Klucel (hydroxypropylcellulose) (HPC)
[6] = endpoint: median tumor weight (est.), dose: 150.0 mg/kg/injection, schedule: Q07DX002 (ip), vehicle: saline
[7] = endpoint: median tumor weight (est.), dose: 300.0 mg/kg/injection, schedule: Q07DX002 (ip), vehicle: saline
[8] = endpoint: median tumor weight (est.), dose: 25.0 mg/kg/injection, schedule: Q07DX002 (ip), vehicle: other
[9] = endpoint: median tumor weight (est.), dose: 50.0 mg/kg/injection, schedule: Q07DX002 (ip), vehicle: saline with Tween-80
[10] = endpoint: median tumor weight (est.), dose: 100.0 mg/kg/injection, schedule: Q07DX002 (ip), vehicle: other
[11] = endpoint: median tumor weight (est.), dose: 100.0 mg/kg/injection, schedule: Q07DX002 (ip), vehicle: saline with Tween-80
[12] = endpoint: median tumor weight (est.), dose: 200.0 mg/kg/injection, schedule: Q07DX002 (ip), vehicle: saline with Tween-80
[13] = endpoint: median tumor weight (est.), dose: 400.0 mg/kg/injection, schedule: Q07DX002 (ip), vehicle: saline with Tween-80

`C[CH2][Sn]([CH2]C)([CH2]C(=O)OC)[CH2]C(=O)OC` was tested, and the T/C (endpoint: median tumor weight (est.), dose: 1.56 mg/kg/injection, schedule: Q07DX002 (ip), vehicle: saline with Tween-80) was 51 % of control, the T/C (endpoint: median tumor weight (est.), dose: 3.12 mg/kg/injection, schedule: Q07DX002 (ip), vehicle: saline with Tween-80) was 113 % of control and the T/C [1] was 109 % of control. The T/C [2] was 65 % of control and the T/C [3] was 74 % of control.

`CCCNC1=C(C)C(=O)C2=C(C1=O)[C@H](COC(N)=O)[C@]1(OC)[C@@H]3N[C@@H]3CN21` was tested, and the T/C (endpoint: median tumor weight (est.), dose: 1.5 mg/kg/injection, schedule: Q07DX002 (ip), vehicle: suspension in saline) was 73 % of control, the T/C (endpoint: median tumor weight (est.), dose: 3.0 mg/kg/injection, schedule: Q07DX002 (ip), vehicle: suspension in saline) was 114 % of control and the T/C (endpoint: median tumor weight (est.), dose: 6.0 mg/kg/injection, schedule: Q07DX002 (ip), vehicle: suspension in saline) was 112 % of control. For the same compound, the T/C (endpoint: median tumor weight (est.), dose: 12.0 mg/kg/injection, schedule: Q07DX002 (ip), vehicle: suspension in saline) was 33 % of control and the T/C (endpoint: median tumor weight (est.), dose: 24.0 mg/kg/injection, schedule: Q07DX002 (ip), vehicle: suspension in saline) was 36 % of control.

With `O=C1C2CC(Cl)C(SSC3CC4C(=O)N(SC(Cl)(Cl)C(Cl)Cl)C(=O)C4CC3Cl)CC2C(=O)N1SC(Cl)(Cl)C(Cl)Cl` (configuration not stated) the T/C [4] was 91 % of control, the T/C [5] was 66 % of control and the T/C (endpoint: median tumor weight (est.), dose: 100.0 mg/kg/injection, schedule: Q07DX002 (ip), vehicle: Klucel (hydroxypropylcellulose) (HPC)) was 74 % of control.

For `O=CC(O)C(O)C(O)C(O)CO` (configuration not stated), the T/C (endpoint: median tumor weight (est.), dose: 75.0 mg/kg/injection, schedule: Q07DX002 (ip), vehicle: saline) was 106 % of control, the T/C [6] was 79 % of control and the T/C [7] was 66 % of control. For the same compound, the T/C (endpoint: median tumor weight (est.), dose: 600.0 mg/kg/injection, schedule: Q07DX002 (ip), vehicle: saline) was 94 % of control and the T/C (endpoint: median tumor weight (est.), dose: 1200.0 mg/kg/injection, schedule: Q07DX002 (ip), vehicle: saline) was 110 % of control.

In the case of `O=C1N[C@@H]2C(=C[C@H](O)[C@@H](O)[C@H]2O)c2cc3c(c(O)c21)OCO3`, the T/C (endpoint: median tumor weight (est.), dose: 1.25 mg/kg/injection, schedule: Q07DX002 (ip), vehicle: saline with Tween-80) is reported as 123 % of control, the T/C (endpoint: median tumor weight (est.), dose: 5.0 mg/kg/injection, schedule: Q07DX002 (ip), vehicle: saline with Tween-80) is reported as 60 % of control and the T/C (endpoint: median tumor weight (est.), dose: 10.0 mg/kg/injection, schedule: Q07DX002 (ip), vehicle: saline with Tween-80) is reported as 69 % of control. For the same compound, the T/C (endpoint: median tumor weight (est.), dose: 20.0 mg/kg/injection, schedule: Q07DX002 (ip), vehicle: saline with Tween-80) was 43 % of control.

`CCN(CC)CCNc1ccc(C)c2sc3ccccc3c(=O)c12` was tested, and the T/C (endpoint: median tumor weight (est.), dose: 50.0 mg/kg/injection, schedule: Q07DX002 (ip), vehicle: suspension in saline) was 66 % of control, the T/C (endpoint: median tumor weight (est.), dose: 100.0 mg/kg/injection, schedule: Q07DX002 (ip), vehicle: suspension in saline) was 42 % of control and the T/C (endpoint: median tumor weight (est.), dose: 200.0 mg/kg/injection, schedule: Q07DX002 (ip), vehicle: suspension in saline) was 2 % of control.

For `Nc1ccc2c(c1)CN1C(=O)c3ccccc3C1=N2`, the T/C (endpoint: median tumor weight (est.), dose: 6.25 mg/kg/injection, schedule: Q01DX008 (ip), vehicle: other) was 90 % of control, the T/C (endpoint: median tumor weight (est.), dose: 12.5 mg/kg/injection, schedule: Q01DX008 (ip), vehicle: other) was 69 % of control and the T/C (endpoint: median tumor weight (est.), dose: 25.0 mg/kg/injection, schedule: Q01DX008 (ip), vehicle: other) was 58 % of control. The T/C [8] was 82 % of control and 92 % of control, the T/C [3] was 60 % of control and the T/C (endpoint: median tumor weight (est.), dose: 50.0 mg/kg/injection, schedule: Q01DX008 (ip), vehicle: other) was 21 % of control. For the same compound, the T/C [9] was 56 % of control, the T/C [10] was 49 % of control and the T/C [11] was 60 % of control. The T/C (endpoint: median tumor weight (est.), dose: 200.0 mg/kg/injection, schedule: Q07DX002 (ip), vehicle: other) was 1 % of control, the T/C [12] was 35 % of control and the T/C (endpoint: median tumor weight (est.), dose: 355.9 mg/kg/injection, schedule: Q07DX002 (oral), vehicle: DMSO) was 74 % of control. The T/C (endpoint: median tumor weight (est.), dose: 533.6 mg/kg/injection, schedule: Q07DX002 (oral), vehicle: DMSO) was 94 % of control, the T/C (endpoint: median tumor weight (est.), dose: 800.0 mg/kg/injection, schedule: Q07DX002 (oral), vehicle: DMSO) was 76 % of control and the T/C (endpoint: median tumor weight (est.), dose: 1200.0 mg/kg/injection, schedule: Q07DX002 (oral), vehicle: DMSO) was 122 % of control. For the same compound, the T/C (endpoint: optimum tumor weight change, dose: 86.0 mg/kg/injection, schedule: Q07DX002 (ip), vehicle: saline with Tween-80) was 77 % of control, the T/C (endpoint: optimum tumor weight change, dose: 144.0 mg/kg/injection, schedule: Q07DX002 (ip), vehicle: saline with Tween-80) was 84 % of control and the T/C (endpoint: optimum tumor weight change, dose: 240.0 mg/kg/injection, schedule: Q07DX002 (ip), vehicle: saline with Tween-80) was 84 % of control. The T/C (endpoint: optimum tumor weight change, dose: 400.0 mg/kg/injection, schedule: Q07DX002 (ip), vehicle: saline with Tween-80) was 71 % of control.

For `O=C(CCCN1CCC(C(O)c2ccc(F)cc2)CC1)c1ccc(F)cc1` (configuration not stated), the T/C [2] was 59 % of control, the T/C [3] was 49 % of control and the T/C [9] was 92 % of control. The T/C [11] was 67 % of control.

With `CCN(CC)c1ccc2[nH]c3c(C(N)=O)cc(=O)c(=O)c=3oc2c1` the T/C [11] was 93 % of control, the T/C [12] was 99 % of control and the T/C [13] was 93 % of control.

In the case of `Cn1c(=O)[nH]c2nncnc2c1=O`, the T/C (endpoint: median tumor weight (est.), dose: 12.5 mg/kg/injection, schedule: Q07DX002 (ip), vehicle: water) is reported as 104 % of control and 112 % of control, the T/C (endpoint: median tumor weight (est.), dose: 50.0 mg/kg/injection, schedule: Q07DX002 (ip), vehicle: water) is reported as 117 % of control and 119 % of control and the T/C (endpoint: median tumor weight (est.), dose: 100.0 mg/kg/injection, schedule: Q07DX002 (ip), vehicle: water) is reported as 120 % of control.

In the case of `Nc1nc(N)c2c(ccc3c2ccn3Cc2cccc([N+](=O)[O-])c2)n1`, the T/C (endpoint: median tumor weight (est.), dose: 3.13 mg/kg/injection, schedule: Q07DX002 (ip), vehicle: saline with Tween-80) is reported as 61 % of control, the T/C [1] is reported as 102 % of control and the T/C [2] is reported as 85 % of control. The T/C [3] was 57 % of control and the T/C [9] was 12 % of control.

In the case of `O=S(=O)([O-])c1ccc(-c2c3nc(c(-c4ccc(S(=O)(=O)[O-])cc4)c4ccc([n-]4)c(-c4ccc(S(=O)(=O)[O-])cc4)c4nc(c(-c5ccc(S(=O)(=O)[O-])cc5)c5ccc2[n-]5)C=C4)C=C3)cc1.[Mn+3].[Na+]`, the T/C (endpoint: median tumor weight change, dose: 226.9 mg/kg/injection, schedule: Q07DX002 (iv), vehicle: water) is reported as 67 % of control, the T/C (endpoint: median tumor weight change, dose: 340.9 mg/kg/injection, schedule: Q07DX002 (iv), vehicle: water) is reported as 77 % of control and the T/C (endpoint: median tumor weight change, dose: 515.0 mg/kg/injection, schedule: Q07DX002 (iv), vehicle: water) is reported as 110 % of control.

In the case of `CC(=O)N(C)O`, the T/C [11] is reported as 124 % of control, the T/C [12] is reported as 116 % of control and the T/C [13] is reported as 91 % of control. For the same compound, the T/C (endpoint: median tumor weight (est.), dose: 800.0 mg/kg/injection, schedule: Q07DX002 (ip), vehicle: saline with Tween-80) was 101 % of control.

For `COCCCNC1=C(C#N)C(=O)NC(c2cccc([N+](=O)[O-])c2)S1` (configuration not stated), the T/C (endpoint: median tumor weight (est.), dose: 225.0 mg/kg/injection, schedule: Q07DX002 (ip), vehicle: saline with Tween-80) was 172 % of control, the T/C (endpoint: median tumor weight (est.), dose: 450.0 mg/kg/injection, schedule: Q07DX002 (ip), vehicle: saline with Tween-80) was 171 % of control and the T/C (endpoint: median tumor weight (est.), dose: 900.0 mg/kg/injection, schedule: Q07DX002 (ip), vehicle: saline with Tween-80) was 159 % of control.

`CO[C@H]1C[C@](C)(O)Cc2cc3c(c(O)c21)C(=O)c1c(O)cc2c(c1C3=O)O[C@@H]1O[C@@]2(C)[C@H](O)[C@@H](N(C)C)[C@@H]1O` was tested, and the T/C (endpoint: median tumor weight (est.), dose: 12.5 mg/kg/injection, schedule: Q07DX002 (ip), vehicle: other) was 124 % of control, the T/C [8] was 102 % of control and the T/C (endpoint: median tumor weight (est.), dose: 50.0 mg/kg/injection, schedule: Q07DX002 (ip), vehicle: other) was 56 % of control. For the same compound, the T/C [10] was 19 % of control.

In the case of `NC(=O)CCC(N)C(=O)O` (configuration not stated), the T/C (endpoint: median tumor weight (est.), dose: 75.0 mg/kg/injection, schedule: Q07DX002 (ip), vehicle: suspension in saline) is reported as 113 % of control, the T/C (endpoint: median tumor weight (est.), dose: 150.0 mg/kg/injection, schedule: Q07DX002 (ip), vehicle: suspension in saline) is reported as 43 % of control and the T/C (endpoint: median tumor weight (est.), dose: 300.0 mg/kg/injection, schedule: Q07DX002 (ip), vehicle: suspension in saline) is reported as 84 % of control. The T/C (endpoint: median tumor weight (est.), dose: 600.0 mg/kg/injection, schedule: Q07DX002 (ip), vehicle: suspension in saline) was 101 % of control and the T/C (endpoint: median tumor weight (est.), dose: 1200.0 mg/kg/injection, schedule: Q07DX002 (ip), vehicle: suspension in saline) was 91 % of control.

In the case of `OC(CBr)C(O)C(O)C(O)CBr` (configuration not stated), the T/C [4] is reported as 83 % of control and the T/C [5] is reported as 83 % of control.

With `C=C(C(=O)O)C(N)C(=O)O` (configuration not stated) the T/C [6] was 56 % of control and the T/C [7] was 94 % of control.
